Data on 10 compounds can be found in patent publication US20060205697A1, “Novel betulin derivatives, preparation thereof and use thereof” (priority 2004, published 2006).

Like-named read-outs stand apart in the source and are kept apart here.

The nature of series [1]: Compound toxicity in mock-infected MT-2 cells, XTT method. As to conditions: human. In kind it is cell-based. The method, then:
(§1) The human T-cell line, MT-2, was maintained in continuous culture with complete medium (RPMI 1640 with 10% fetal calf serum supplemented with L-glutamine at 5% CO2 and 37° C.). Test samples were first dissolved in dimethyl sulfoxide at a concentration of 10 mg/mL to generate master stocks with dilutions made into tissue culture media to generate working stocks. The final drug concentrations used for screening were 25. 2.5, 0.25, and 0.025 μg/mL. For agents found to be active, additional dilutions were prepared for subsequent testing so that an accurate EC50 value (defined below) could be determined. Test samples were prepared in duplicate (45 μL/well) and to each sample well was added […] of media containing MT-2 cells at 3×10^5 cells/mL and 45 μL of virus inoculum (HIV-1 IIIIB isolate) at a concentration necessary to result in 50% killing of the cell targets at 5 days post-infection (PI). Control wells containing virus and cells only (no drug) and cells only (no virus or drug) were also prepared. A second set of samples were prepared identical to the first and were added to cells under identical conditions without virus (mock infection) for toxicity determinations (IC50 defined below). In addition, AZT was also assayed during each experiment as a positive drug control. On day 5 PI, virus-induced cell killing was determined by measuring cell viability using the XTT method (Roehm, N., et al., supra). Compound toxicity was determined by XTT using the mock-infected samples. If a test sample had suppressive capability and was not toxic, its effects were reported in the following terms: IC50, the concentration of test sample which is toxic to 50% of the mock-infected MT-2 cells; EC50, the concentration of the test sample that is able to suppress HIV replication by 50%; and the Therapeutic index (TI) the ratio of the IC50 to EC50. The effective (EC50) and inhibitory (IC50) concentrations for anti-HIV activity and cytotoxicity, respectively, were determined (Roehm, N., et al., supra).
A general note: Tetrazolium assays rely on reduction of a dye to a coloured formazan, in cell work by metabolically active cells.

A further series deals with HIV-1 IIIIB isolate. The series is described as follows: HIV-1 inhibition: suppression of virus-induced cell killing in MT-2 cells, XTT method. In kind it is cell-based. The conditions noted are these: Human immunodeficiency virus 1, IIIB, MT2, 120 h, read-out: anti-HIV activity (EC50). Here is the method: The biological evaluation of HIV-1 inhibition can be carried out as follows according to established protocols (Montefiori, D. C., et al., Clin. Microbiol. 26:231-235 (1988); Roehm, N., et al. J. Immunol. Methods 142:257-265 (1991)).
as §1

The test system of series [2] is HIV-1 replication in H9 lymphocyte cells. The conditions noted are these: cited from earlier work.

As for `C=C(C)[C@@H]1CC[C@]2(C(=O)OCCC#N)CC[C@]3(C)[C@H](CCC4[C@@]5(C)CC[C@H](OC(=O)CC(C)(C)CC(=O)O)C(C)(C)C5CC[C@]43C)C12` (some centres unmarked) [Compound 206, 3-O-(3′,3′-Dimethylglutaryl)betulinic acid 2-cyanoethyl ester], the 50% inhibitory concentration (IC50) at 5 days in series [1] fell in the range of 5000 to 100000 nM. Besides, the EC50 with HIV-1 IIIIB isolate fell in the range of 1 to 300 nM.
For `C=C(C)[C@@H]1CC[C@]2(C(=O)OCCOC)CC[C@]3(C)[C@H](CC[C@@H]4[C@@]5(C)CC[C@H](OC(=O)CC(C)(C)CC(=O)O)C(C)(C)[C@@H]5CC[C@]43C)[C@@H]12` [Compound 223, 3-O-(3′,3′-Dimethylglutaryl)betulinic acid 2-methoxyethyl ester] the same measures were 5000 to 100000 nM and 1 to 300 nM.
On the same counts, the results for `C=C(C)[C@@H]1CC[C@]2(C(=O)OC3CCOC3)CC[C@]3(C)[C@H](CC[C@@H]4[C@@]5(C)CC[C@H](OC(=O)CC(C)(C)CC(=O)O)C(C)(C)[C@@H]5CC[C@]43C)[C@@H]12` (mixture of isomers) [Compound 231, 3-O-(31,3′-Dimethylglutaryl)betulinic acid 3-(R/S)-3-(tetrahydrofuranyl) ester] are 5000 to 100000 nM and 1 to 300 nM.
On the same counts, the results for `C=C(C)[C@@H]1CC[C@]2(C(=O)OC3CCN(C(=O)OC(C)(C)C)C3)CC[C@]3(C)[C@H](CC[C@@H]4[C@@]5(C)CC[C@H](OC(=O)CC(C)(C)CC(=O)O)C(C)(C)[C@@H]5CC[C@]43C)[C@@H]12` (stereo partly drawn) [Compound 227, 3-O-(3′,3′-Dimethylglutaryl)betulinic acid (R)-3-[1-(tert-butoxycarbonyl)-pyrrolidinyl] ester] are 5000 to 100000 nM and 1 to 300 nM.
For the compound `C=C(C)[C@@H]1CC[C@]2(C(=O)OCC)CC[C@]3(C)[C@H](CC[C@@H]4[C@@]5(C)CC[C@H](OC(=O)CC(C)(C)CC(=O)O)C(C)(C)[C@@H]5CC[C@]43C)[C@@H]12` [Compound 235, 3-O-(3′,3′-Dimethylglutaryl)betulinic acid ethyl ester], the IC50 at 5 days in series [1] was in the range of 5000 to 100000 nM. Moreover, the EC50 in the series with HIV-1 IIIIB isolate is 1 to 300 nM.
For `C=C(C)[C@@H]1CC[C@]2(C(=O)OCCN(C)C)CC[C@]3(C)[C@H](CCC4[C@@]5(C)CC[C@H](OC(=O)CC(C)(C)CC(=O)O)C(C)(C)C5CC[C@]43C)C12` (some centres unmarked) [Compound 218, 3-O-(3′,3′-Dimethylglutaryl)betulinic acid 2-N,N-dimethylaminoethyl ester] the same measures were 5000 to 100000 nM and 1 to 300 nM.
On the same counts, the results for `C=C(C)[C@@H]1CC[C@]2(CN)CC[C@]3(C)[C@H](CC[C@@H]4[C@@]5(C)CC[C@H](OC(=O)CC(C)(C)CC(=O)O)C(C)(C)[C@@H]5CC[C@]43C)[C@@H]12` [Compound 49, 3-O-(3′,3′-dimethylglutaryl)lup-20(29)-en-28-ylamine] are 5000 to 100000 nM and 1 to 300 nM.
For `C=C(C)[C@@H]1CC[C@]2(CNC(=O)OC(C)(C)C)CC[C@]3(C)[C@H](CC[C@@H]4[C@@]5(C)CC[C@H](OC(=O)CC(C)(C)CC(=O)O)C(C)(C)[C@@H]5CC[C@]43C)[C@@H]12` [Compound 1065, tert-Butoxycarboxamide N-[3-O-(3′,3′-dimethylglutaryl)lup-20(29)-en-28-yl]], the IC50 at 5 days in series [1] lay within 5000 to 100000 nM. For the same compound, in the series on HIV-1 IIIIB isolate, the 50% effective concentration (EC50) was in the range of 1 to 300 nM.
With `CC(=O)[C@@H]1CC[C@]2(C(=O)O)CC[C@]3(C)[C@H](CC[C@@H]4[C@@]5(C)CC[C@H](O)C(C)(C)[C@@H]5CC[C@]43C)[C@@H]12` [platanic acid], the T.I. in series [2] (H9 lymphocyte cells) is on record as 14. In series [2] (H9 lymphocyte cells, read-out: EC50, inhibitory activity against HIV-1 replication), the concentration for a half-maximal effect (EC50) was 6500 nM.
Regarding `CC(C)[C@@H]1CC[C@]2(C(=O)O)CC[C@]3(C)C(CCC4[C@@]5(C)CC[C@H](O)C(C)(C)C5CC[C@]43C)C12` (some centres unmarked) [dihydrobetulinic acid], the T.I. in series [2] (H9 lymphocyte cells) is reported as 14. The concentration giving a half-maximal response (EC50) in series [2] (unit inferred, Fujioka et al. 1994, read-out: EC50, anti-HIV activity) is 900 nM.

As a reminder, the IC50 is the concentration that inhibits the measured activity by half. Broadly, the EC50 is the concentration at which the effect is half-maximal.
